# Values of other authors as cited in US12616206B2, “Graphene-silver nanocomposites and uses for same as an antimicrobial composition” (ZENTEK LTD., priority 2020, dated 2026).
# Legend:
# Settings in all cases: literature value, source by footnote a-g
# Streptococcus pyogenes = test system: Streptococcus pyogenes
# Salmonella typhi = test system: Salmonella typhi
# Vibrio cholerae = test system: Vibrio cholerae
# Candida albicans = test system: Candida albicans
smiles,measurement,setting,value
"O=[N+]([O-])[O-].[Ag+] [AgNO3, silver nitrate]",MIC,Streptococcus pyogenes,80 ^c μg/mL
same,MIC,Salmonella typhi,110 ^c μg/mL
same,MIC,Vibrio cholerae,70 ^c μg/mL
same,MIC,Candida albicans,4.9 ^f μg/mL
